Where “and” joins values, the source holds several entries; their conditions need not be identical. Identical values can stand only once.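 Grown in 96-well plates, cells were treated for 48 hours with each compound at five concentrations. Insufficient inhibition: endpoint recorded as highest concentration tested. GI50 = concentration required for 50% inhibition of growth. TGI denotes the concentration required for complete inhibition of growth.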
Assays:
Test in all cases: inhibition of tumour cell growth, NCI panel, 48 h
NCI-H23 lung = test system: NCI-H23 lung
HS 578T breast = test system: HS 578T breast
K-562 leukemia = test system: K-562 leukemia
HOP-92 NSCLC = test system: HOP-92 NSCLC
HCC-2998 colon = test system: HCC-2998 colon
SK-OV-3 ovarian = test system: SK-OV-3 ovarian
NCI-H226 lung = test system: NCI-H226 lung
IGROV1 ovarian = test system: IGROV1 ovarian
HCT-116 colon = test system: HCT-116 colon
M14 melanoma = test system: M14 melanoma

| Compound | GI50 (NCI-H23 lung) [µM] | TGI (NCI-H23 lung) [µM] | GI50 (HS 578T breast) [µM] | TGI (HS 578T breast) [µM] | GI50 (K-562 leukemia) [µM] | TGI (K-562 leukemia) [µM] | GI50 (HOP-92 NSCLC) [µM] | TGI (HOP-92 NSCLC) | GI50 (HCC-2998 colon) [µM] | TGI (HCC-2998 colon) [µM] | GI50 (SK-OV-3 ovarian) [µM] | TGI (SK-OV-3 ovarian) [µM] | GI50 (NCI-H226 lung) [µM] | TGI (NCI-H226 lung) [µM] | GI50 (IGROV1 ovarian) [µM] | TGI (IGROV1 ovarian) | GI50 (HCT-116 colon) [µM] | TGI (HCT-116 colon) [µM] | GI50 (M14 melanoma) [µM] | TGI (M14 melanoma) |
| --- | --- | --- | --- | --- | --- | --- | --- | --- | --- | --- | --- | --- | --- | --- | --- | --- | --- | --- | --- | --- |
| O=C(NCCc1ccccc1)Nc1ccc2cc3ccc(NC(=O)NCCc4ccccc4)cc3nc2c1 | 0.857 | 2.48 | 0.276 | 0.933 | 0.392 | 35.7 | 1.47 | 3 µM | 0.447 | 1.68 | 1.51 | 3 | 1.95 | 5.85 | 1.44 | 3.97 µM | 0.349 | 1.29 |  |  |
| CNC(=O)c1cc(Oc2cccc3nc(NC(=O)Nc4cc(C(F)(F)F)cc(C(F)(F)F)c4)ccc23)ccn1 | 6.15 | 42.7 | 2.57 | 13.5 | 9.29 | > 100 | 2.5 | 6.27 µM | 15.5 | > 100 | 2.99 | 10.1 | 4.21 | 39.8 |  |  | 13.8 | 41.8 | 10.2 | 62.8 µM |
| CCCCCCCCCC[C@@H](O)[C@@H]1CC[C@@H]([C@@H]2CC[C@@H]([C@@H](O)CCCCCCCCCC[C@H](O)CC3=CC(C)OC3=O)O2)O1 (stereo not given in full) |  |  | 14 |  | 2.94 | > 100 | 10.3 | 8.09 µM and 33.8 µM |  | 9.13 |  | 21.9 |  | 3.49 | 4.4 | 7.47 µM and 36.8 µM |  | 28.1 | 5.47 | 5.16 µM and 29.6 µM |
| COc1ccc(/C(C)=N/NC(=O)CSc2nc3ccccc3c(=O)n2CCc2ccc(S(N)(=O)=O)cc2)cc1 | 2.3 | 5.81 | 2.24 | 6.2 | 2.87 | > 100 | 1.89 | 4 µM | 9.26 | 28.6 |  |  | 1.95 | 4.18 | 1.97 | 3.98 µM |  |  | 1.91 | 3.75 µM |
| CC(C)(C)c1cc(C(=O)Nc2ccc(C(=O)NCCN)cc2)cc(C(C)(C)C)c1 | 3.19 | 14.4 | 2.2 | 5.96 | 1.94 | 5.06 | 2.82 | 12.6 µM | 1.69 | 3.18 | 5.31 | 20.7 | 6.43 | 28.1 |  |  | 3.36 | 12.7 | 1.71 | 3.42 µM |
| O=C1CC[C@H](N2Cc3c(OCc4ccc(CN5CCOCC5)cc4)cccc3C2=O)C(=O)N1 |  |  | > 100 | > 100 | > 100 | > 100 | > 100 | > 100 µM | > 100 | > 100 | > 100 | > 100 | > 100 | > 100 | > 100 | > 100 µM | > 100 | > 100 | > 100 | > 100 µM |
| OB(O)c1ccccc1C#Cc1ccccc1B(O)O |  | 90.9 |  | 51 |  | > 100 |  | > 100 µM |  | 40.9 |  | > 100 |  |  |  | 13.9 µM |  | 58.4 |  | 57.6 µM |
